Source: patent publication US20150045445A1, “3-KETO-N-PROPARGYL-1-AMINOINDAN” (TEVA PHARMACEUTICAL INDUSTRIES, LTD., priority 2009, published 2015)

How the values were obtained:
[1] = Genotoxicity of the by-product; settings: by-product of rasagiline drug substance production; no test described
[2] = AZILECT Product Label, May 2006; cited from earlier work

Row | SMILES | genotoxicity [1] | absolute bioavailability [2]
1 | C#CCNC1CC(=O)c2ccccc21 (centres unmarked) [3-keto-N-propargyl-1-aminoindan] | not genotoxic | 
2 | C#CCN[C@@H]1CCc2ccccc21 [rasagiline, R(+)-N-propargyl-1-aminoindan] |  | about 36%
